In patent US10842151B2, “Small molecule compound for enhancing plant stress resistance” (SHANGHAI INSTITUTES FOR BIOLOGICAL SCIENCES, CHINESE …, priority 2015, dated 2020):
Read-outs that look alike come from different tables or passages of the source. Values belong to the molecule of their own block, whether it stands above or below them.

How the values were obtained:
PYL2 + HAB1 [1] = molecular target: T1, PYL2 + HAB1 (Arabidopsis thaliana, UniProt O80992); assay: AlphaScreen experiment, PYL2 + HAB1; assay type: binding
T1 construct: made in house; host or cells: E. coli BL21 (DE3)
T1 sequence (O80992 14-188 limits assumed): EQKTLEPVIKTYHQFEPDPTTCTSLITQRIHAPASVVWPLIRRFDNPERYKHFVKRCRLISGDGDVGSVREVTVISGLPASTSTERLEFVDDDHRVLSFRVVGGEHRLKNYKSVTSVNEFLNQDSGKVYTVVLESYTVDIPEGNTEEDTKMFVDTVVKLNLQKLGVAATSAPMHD
T1 sequence (Q9CAJ0 172-511 partner limits assumed): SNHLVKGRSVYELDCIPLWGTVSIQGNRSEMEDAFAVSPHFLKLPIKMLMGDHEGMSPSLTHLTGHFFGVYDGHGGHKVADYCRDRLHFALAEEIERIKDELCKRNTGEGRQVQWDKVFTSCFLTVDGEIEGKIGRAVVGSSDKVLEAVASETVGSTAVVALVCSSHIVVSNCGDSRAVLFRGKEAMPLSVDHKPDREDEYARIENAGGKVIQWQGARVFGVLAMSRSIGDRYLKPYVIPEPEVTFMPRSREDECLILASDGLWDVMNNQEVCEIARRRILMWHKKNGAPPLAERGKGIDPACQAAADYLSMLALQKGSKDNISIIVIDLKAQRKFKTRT
Description: (§1) After incubating for 1.5 hours at room temperature in the dark, it was placed into an Envision Plate Reader (available from Perkin Elmer) under the programmed AlphaScreen procedure for readings.

PYR1 + HAB1 = molecular target: T2, PYR1 + HAB1 (Arabidopsis thaliana, UniProt O49686); assay: AlphaScreen experiment, PYR1 + HAB1; assay type: binding; conditions: column 2
T2 sequence (O49686 1-191): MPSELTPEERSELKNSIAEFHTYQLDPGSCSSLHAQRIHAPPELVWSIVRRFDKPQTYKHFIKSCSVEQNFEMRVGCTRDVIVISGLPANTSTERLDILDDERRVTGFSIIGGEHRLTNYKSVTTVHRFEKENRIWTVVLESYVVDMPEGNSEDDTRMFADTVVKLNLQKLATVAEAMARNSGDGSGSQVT
T2 sequence (Q9CAJ0 172-511 partner): T1 sequence (Q9CAJ0 172-511 partner limits assumed)
Description: as §1

PYL7 + HAB1 = molecular target: T3, PYL7 + HAB1 (Arabidopsis thaliana, UniProt Q1ECF1); assay: AlphaScreen experiment, PYL7 + HAB1; assay type: binding
T3 construct: made in house; host or cells: E. coli BL21 (DE3)
T3 sequence (Q1ECF1 1-211): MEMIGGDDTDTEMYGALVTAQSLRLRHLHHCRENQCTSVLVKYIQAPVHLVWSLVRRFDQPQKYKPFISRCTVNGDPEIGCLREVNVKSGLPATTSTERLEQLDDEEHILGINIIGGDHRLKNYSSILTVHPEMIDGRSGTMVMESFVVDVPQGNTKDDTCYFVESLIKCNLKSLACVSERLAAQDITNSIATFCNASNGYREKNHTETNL
T3 sequence (Q9CAJ0 172-511 partner limits assumed): T1 sequence (Q9CAJ0 172-511 partner limits assumed)
Description: as §1

[2] = tested on: Arabidopsis Col-0 ecotype; assay: Soil drought experiment, Arabidopsis; assay type: in vivo, Arabidopsis thaliana
Description: Seeds of Arabidopsis Col-0 ecotype were sterilized with NaClO and then sown on ½ MS solid medium at 4° C. for 3 days of vernalization. After 6 days of growing, the well-grown seedlings having uniform size were selected and transferred into 8×7×6 cm^3 pots. Each pot was filled with the same weight of soil and the same number of plants (six plants) was planted to reduce experimental error. All the pots were subjected to a short-day culture at 22° C. After two weeks, watering was stopped for drought treatment. […] The position of the flowerpot was changed every day during the process of drought to reduce the error caused by environmental factors. During the whole drought period, the solution was sprayed twice in total and photos were recorded regularly. The watering was resumed in about three weeks.

[3] = tested on: Arabidopsis thaliana Col-0 ecotype seeds; assay: Seed germination, Col-0; assay type: in vivo; conditions: 1 μM; six days after seeding
From the text: (§2) Two lines of plant were sown simultaneously on a single medium of 6 cm diameter, with 15 seeds sown for each line and 4 replicates for each compound. […]

[4] = tested on: pyr1;pyl1;pyl4 triple mutant seeds; assay: Seed germination, PYR/PYL triple mutant; assay type: in vivo, Arabidopsis thaliana; conditions: 1 μM; six days after seeding
From the text: as §2

[5] = tested on: Arabidopsis ABA synthesis defective mutant aba2-1; assay type: in vivo, Arabidopsis thaliana; conditions: 5 μM sprayed; after two days; vs DMSO
soybean Williams 82 = assay: Soybean leaf transpiration experiment (thermal imaging); assay type: in vivo
Description: After three weeks of continuous watering, 0.05% tween-20 and corresponding concentrations of DMSO (control)/compound (+)-ABA/0918/1127 were sprayed onto the plants in a single administration with an amount of 1.2 ml/pot. Images were taken daily using the FLIR A655sc thermal imaging camera at the same time before and after spraying. The Williams 82 ecotype was used in soybean leaf transpiration experiments for compounds 0604c, 0918 and 1127 and was long-day cultured at 26° C. After the plants grew and had 3 leaves in each of 3 groups, 0.05% tween-20 and 50 μM DMSO (control)/(+)-ABA/0604c/0918/1127 compounds were sprayed in a single administration with an amount of 4 ml/pot. Images were taken daily using the FLIR A655sc thermal imaging camera at the same time before and after spraying.
(§3) Leaf transpiration experiments of soybean and cotton for compound 0720B were carried out at 26° C. with long-day lighting. 16 days and 23 days after sowing, a solution containing 0.1% tween-20 and corresponding concentration of (+)-ABA, or 0720B compound or 0.1% Tween-20 and 0.05% DMSO (control) was sprayed in an amount of 4 ml/pot. Images were taken daily using the FLIR A655sc thermal imaging camera at the same time before and after spraying.

cotton = assay: Cotton leaf transpiration experiment (thermal imaging); assay type: in vivo; conditions: 50 μM; after two days; vs DMSO
Description: as §3

PYL2 + HAB1 [6] = molecular target: T1, PYL2 + HAB1; assay: HAB1 phosphatase activity assay with PYL2, SnRK2.6 phosphorylated polypeptide substrate; assay type: biochemical
Description: (§4) HAB1 Phosphatase Activity Assay […] The reaction system was incubated at room temperature for 30 minutes, followed by a further reaction for 30 minutes after adding an 11-amono acid phosphorylated polypeptide as a substrate. The phosphorylated polypeptide consisting of amino acid 170-180 of SnRK2.6 protein kinase (sequence […]) was purchased from […] company, wherein phosphorylated […] was a known HAB1 dephosphorylation target site. After 30 minutes, chromogenic reagent (purchased from BioVision) was added and the absorbance at 650 nm was read on a microplate reader (Molecular Devices).

[7] = tested on: ABA-induced environmental stress-related gene expression; assay: Gene expression analysis (fluorescence quantitative PCR); assay type: in vivo, Arabidopsis thaliana (Col-0); conditions: for expression levels of most ABA-induced stress-related genes compared with ABA: 10 μM, 6 hours of treatment, 10-day-aged seedlings
Description: The whole plant or leaves were taken, and RNA extraction was carried out by using conventional methods. After reverse transcription, the fluorescence quantitative PCR was carried out. Triple biological samples were taken for each treatment which was performed twice. The ACT7 gene was used as a reference gene.

[8] = tested on: PYR/PYL receptors (PYR1, PYL1, PYL2 and PYL7)-HAB1 complex; assay: Broad spectrum experiment on PYR/PYL receptors (HAB1 phosphatase activity); assay type: biochemical, Arabidopsis; conditions: 1 μM
Description: as §4

[9] = tested on: soybean GmPYL3 and GmPYL6 + Arabidopsis AtHAB1; assay: AlphaScreen experiment with soybean GmPYL receptors; assay type: binding; conditions: FIG. 9
Description: as §1

[10] = number in brackets, read-out: Half maximum effect concentration EC50 (PYL2 + HAB1)
[11] = number in brackets, read-out: Half maximum effect concentration EC50 (PYR1 + HAB1)
[12] = number in brackets, read-out: Half maximum effect concentration EC50 (PYL7 + HAB1)
[13] = 5 μM sprayed, 18 days after drought
[14] = 10 μM sprayed, after 17 days of drought

Compound: CC1=CC(=O)CC(C)(C)[C@@]1(O)/C=C/C(C)=C\C(=O)O [ABA, Abscisic Acid, reference compound]
EC50 (PYL2 + HAB1 [1]; Half maximum effect concentration EC50 (PYL2 + HAB1), class, class symbol): 100 to 1000 nM | EC50 (PYL2 + HAB1 [1]; Half maximum effect concentration EC50 (PYL2 + HAB1), number in brackets): 410 nM | EC50 (PYL7 + HAB1; Half maximum effect concentration EC50 (PYL7 + HAB1), class, class symbol): 1000 to 10000 nM | EC50 (PYL7 + HAB1; Half maximum effect concentration EC50 (PYL7 + HAB1), number in brackets): 1070 nM | EC50 (PYR1 + HAB1; Half maximum effect concentration EC50 (PYR1 + HAB1), class, class symbol): 100 to 1000 nM | EC50 (PYR1 + HAB1; Half maximum effect concentration EC50 (PYR1 + HAB1), number in brackets): 700 nM | germination of Col-0 ecotype seeds [3]: could still inhibit germination of Col-0 ecotype seeds | germination of pyr1;pyl1;pyl4 triple mutant seeds [4]: could not inhibit germination of PYR/PYL triple mutant pyr1;pyl1;pyl4 seeds | leaf surface temperature [5]: higher than that of DMSO control group | leaf temperature (soybean Williams 82; 50 μM sprayed, 0.2 μmol per plant, after three days, vs DMSO): had no difference with the control | leaf temperature (soybean Williams 82; two days after spraying, 0720B 20 μM or 50 μM, ABA 50 μM): had no difference from that in the control group | leaf temperature (cotton): had no difference from that in the control group | plant survival [2, 13]: died because of drought | plant survival [2, 14]: died because of drought

Compound: CCCN1C(=O)CCc2cc(NS(=O)(=O)Cc3ccc(C)cc3)ccc21 [AM1, 4-methyl-N-(1,2,3,4-tetrahydro-2-oxo-1-propyl-6-quinolinyl)-benzene methanesulfonamide, reference compound]
EC50 (PYL2 + HAB1 [1]; [10]): 480 nM | inhibition ratio Z of HAB1 relative enzyme activity (PYL2 + HAB1) (PYL2 + HAB1 [6]; at 0.1 μM, Z relative to ABA): 86% | germination of Col-0 ecotype seeds [3]: could still inhibit germination of Col-0 ecotype seeds | germination of pyr1;pyl1;pyl4 triple mutant seeds [4]: could not inhibit germination of PYR/PYL triple mutant pyr1;pyl1;pyl4 seeds | leaf surface temperature [5]: higher than that of DMSO control group | plant survival [2, 14]: died because of drought | expression levels of most ABA-induced stress-related genes compared with ABA [7]: lower than the level in the plants treated with 10 μM ABA

Compound: CCCN1C(=O)CC(C)(C)c2cc(NS(=O)(=O)Cc3c(F)c(F)c(C)c(F)c3F)ccc21 [Compound 0825A]
inhibition of the dephosphorylation effect of HAB1 on SnRK2.6 phosphorylated polypeptide compared with ABA (PYL2 + HAB1 [6]; PYL2 receptor, same concentration as ABA): significantly better than that of ABA at the same concentration

Compound: CCCn1c(=O)ccc2cc(NS(=O)(=O)Cc3c(F)c(F)c(C)c(F)c3F)ccc21 [Compound 0717]
expression levels of most ABA-induced stress-related genes compared with ABA [7]: significantly exceeded the level in the plants treated with 10 μM ABA

Compound: CCCN1C(=O)CCc2cc(NS(=O)(=O)Cc3ccc(C)c(F)c3)ccc21 [Compound 0604c]
EC50 (PYL2 + HAB1 [1]; [10]): 40 nM | EC50 (PYL7 + HAB1; [12]): 30 nM | EC50 (PYR1 + HAB1; [11]): 40 nM | binding to PYR/PYL receptors [8]: could bind with PYR1/PYL1/PYL2/PYL3/PYL4/PYL5/PYL7/PYL10 | binding ability with PYR1/PYL1/PYL2/PYL7 compared with ABA ([8]; FIG. 1, FIG. 13): significantly higher than those of ABA | affinities for soybean GmPYL proteins compared with ABA [9]: significantly higher affinities | germination of Col-0 ecotype seeds [3]: could still inhibit germination of Col-0 ecotype seeds | germination of pyr1;pyl1;pyl4 triple mutant seeds [4]: could not inhibit germination of PYR/PYL triple mutant pyr1;pyl1;pyl4 seeds | plant survival [2, 14]: still survived | expression levels of most ABA-induced stress-related genes compared with ABA [7]: significantly exceeded the level in the plants treated with 10 μM ABA | expression level of relevant genes compared with ABA ([7]; one day after treatment, ABA 10 μM): significantly higher than that in the plants treated with 10 μM ABA

More lines, main results first:

EC50 (PYL2 + HAB1 [1]; [10]): 80 nM | EC50 (PYR1 + HAB1; [11]): 140 nM
Compound: CCCN1C(=O)CCc2cc(NS(=O)(=O)Cc3ccc(C(F)(F)F)c(F)c3)ccc21 [Compound 1020A]

EC50 (PYL2 + HAB1 [1]; [10]): 60 nM | EC50 (PYR1 + HAB1; [11]): 40 nM
Compound: CCCN1C(=O)CCc2cc(NS(=O)(=O)Cc3ccc(Cl)cc3F)ccc21 [Compound 0925]

EC50 (PYL2 + HAB1 [1]; [10]): 20 nM | EC50 (PYL7 + HAB1; [12]): 20 nM | EC50 (PYR1 + HAB1; [11]): 20 nM
Compound: CCCN1C(=O)CCc2cc(NS(=O)(=O)Cc3cc(F)c(C)c(F)c3)ccc21 [Compound 1125B]
plant survival [2, 13]: still survived

EC50 (PYL2 + HAB1 [1]; [10]): 30 nM | EC50 (PYL7 + HAB1; [12]): 40 nM | EC50 (PYR1 + HAB1; [11]): 50 nM
Compound: CCCN1C(=O)CCc2cc(NS(=O)(=O)Cc3ccc(C)cc3F)ccc21 [Compound 1125A]

EC50 (PYL2 + HAB1 [1]; [10]): 50 nM | EC50 (PYL7 + HAB1; [12]): 150 nM | EC50 (PYR1 + HAB1; [11]): 120 nM
Compound: CCCN1C(=O)CCc2cc(NS(=O)(=O)Cc3ccc(C)c(Cl)c3)ccc21 [Compound 1103B]

EC50 (PYL2 + HAB1 [1]; [10]): 80 nM | EC50 (PYR1 + HAB1; [11]): 50 nM
Compound: CCCN1C(=O)CCc2cc(NS(=O)(=O)Cc3c(F)c(F)c(C(F)(F)F)c(F)c3F)ccc21 [Compound 1020B]
